Measured values published in patent US7423157B2, “Substituted benzimidazoles and their use for inducing apoptosis” (Basilea Pharmaceutica AG, priority 2004, dated 2008).
pIC50: −log10 of the molar value.

Key:
HeLa [1] = experiment: MTS proliferation assay, HeLa; format: cell-based, human; details: 72 h incubation
Experimental: (§1) The assay is performed in 96 well tissue culture plates. The cells (range: 1.5*10^3-10^4) are seeded out in 80 μl complete medium 24 h prior to compound treatment. The test compounds are added in 20 μl complete medium containing max 5% DMSO. The final compound concentrations in the assays are 10 μM, 3 μM, 1 μM and 0.3 μM, respectively. The assay plates are incubated for 72 h at culture conditions. The MTS reagent is prepared according to the manufacturer's protocol (Promega G1111). 20 μl MTS reagent are added to each well, the assay plates are quickly spun and incubated for another 3 h at culture conditions. Subsequently, the plates are shortly shaked and absorption measured with a microplate-reader at 492 nm.

HeLa [2] = experiment: Hoechst 33342 nuclear staining, HeLa; format: cell-based, human; details: 48 h
Experimental: (§2) This assay is performed in 96 well tissue culture plates. Appropriate number of cells (adherent cells: 3-5*10^3, suspension cells: 8-10*10^3) are being seeded out in 80 μl complete medium. Adherent cells are incubated for 24 h for proper spreading out before addition of test compounds while suspension cells are immediately treated with test compounds after seeding out. The test compounds are added in 20 μl complete medium containing max 5% DMSO. The final compound concentrations in the assays are 10 μM, 3 μM, 1 μM and 0.3 μM, respectively. […] The assay plates are then further incubated for 30 minutes and subsequently analyzed with a standard inverted fluorescence microscope.
(§3) The readout allows the determination of the fraction of apoptotic nuclei as well as other morphological criteria specific for apoptosis as a function of the treatment. The following scores are used: 0 relating to no activity, 1 relating to weak activity comprising less than 50% of the cells and score 2 relating to strong activity comprising more than 50% of the cells.

Jurkat [3] = experiment: Hoechst 33342 nuclear staining, Jurkat; format: cell-based, human; details: 48 h
Experimental: as §2, §3

MRC5 = experiment: Hoechst 33342 nuclear staining, MRC5; format: cell-based; set-up: key: 0 = no activity, 1 = weak (<50% of cells), 2 = strong (>50% of cells); details: MRC5, 48 h
Experimental: as §2, §3

Jily = experiment: Hoechst 33342 nuclear staining, Jily; format: cell-based; details: 48 h
Experimental: as §2, §3

H460 = experiment: Hoechst 33342 nuclear staining, H460; format: cell-based, human; details: H460, 48 h
Experimental: as §2, §3

PBLs = experiment: Hoechst 33342 nuclear staining, PBLs; format: cell-based; set-up: key: 0 = no activity, 1 = weak (<50% of cells), 2 = strong (>50% of cells); details: 48 h
Experimental: as §2, §3

Jurkat [4] = experiment: MTS proliferation assay, Jurkat; format: cell-based, human; details: 72 h incubation
Experimental: as §1

Row | Compound | Hoechst 33342 nuclear staining score (HeLa [2]; conc. 0.3 (μM)) | Hoechst 33342 nuclear staining score (HeLa [2]; conc. 1 (μM)) | Hoechst 33342 nuclear staining score (HeLa [2]; conc. 3 (μM)) | Hoechst 33342 nuclear staining score (HeLa [2]; conc. 10 (μM)) | Hoechst 33342 nuclear staining score (Jurkat [3]; conc. 0.3 (μM)) | Hoechst 33342 nuclear staining score (Jurkat [3]; conc. 1 (μM)) | Hoechst 33342 nuclear staining score (Jurkat [3]; conc. 3 (μM)) | Hoechst 33342 nuclear staining score (Jurkat [3]; conc. 10 (μM)) | Hoechst 33342 nuclear staining score (MRC5; conc. 0.3 (μM)) | Hoechst 33342 nuclear staining score (MRC5; conc. 1 (μM)) | Hoechst 33342 nuclear staining score (MRC5; conc. 3 (μM)) | Hoechst 33342 nuclear staining score (MRC5; conc. 10 (μM)) | Hoechst 33342 nuclear staining score (Jily; conc. 0.3 (μM)) | Hoechst 33342 nuclear staining score (Jily; conc. 1 (μM)) | Hoechst 33342 nuclear staining score (Jily; conc. 3 (μM)) | Hoechst 33342 nuclear staining score (Jily; conc. 10 (μM)) | Hoechst 33342 nuclear staining score (H460; conc. 0.3 (μM)) | Hoechst 33342 nuclear staining score (H460; conc. 1 (μM)) | Hoechst 33342 nuclear staining score (H460; conc. 3 (μM)) | Hoechst 33342 nuclear staining score (H460; conc. 10 (μM)) | further results
1 | Nc1ccc(C(=O)Cn2c(-n3ncnc3N)nc3ccccc32)cn1 [Example 14] | 2 (score 2 relating to strong activity comprising more than 50% of the cells) | 2 (score 2 relating to strong activity comprising more than 50% of the cells) | 2 (score 2 relating to strong activity comprising more than 50% of the cells) | 2 (score 2 relating to strong activity comprising more than 50% of the cells) | 2 (score 2 relating to strong activity comprising more than 50% of the cells) | 2 (score 2 relating to strong activity comprising more than 50% of the cells) | 2 (score 2 relating to strong activity comprising more than 50% of the cells) | 2 (score 2 relating to strong activity comprising more than 50% of the cells) | 1 (1 relating to weak activity comprising less than 50% of the cells) | 1 (1 relating to weak activity comprising less than 50% of the cells) | 1 (1 relating to weak activity comprising less than 50% of the cells) | 1 (1 relating to weak activity comprising less than 50% of the cells) | 2 (score 2 relating to strong activity comprising more than 50% of the cells) | 2 (score 2 relating to strong activity comprising more than 50% of the cells) | 2 (score 2 relating to strong activity comprising more than 50% of the cells) | 2 (score 2 relating to strong activity comprising more than 50% of the cells) | 2 (score 2 relating to strong activity comprising more than 50% of the cells) | 2 (score 2 relating to strong activity comprising more than 50% of the cells) | 2 (score 2 relating to strong activity comprising more than 50% of the cells) | 2 (score 2 relating to strong activity comprising more than 50% of the cells) | pIC50 (HeLa [1]): 6.00 to 7.00; Hoechst 33342 nuclear staining score (PBLs; conc. 0.3 (μM)): 0; Hoechst 33342 nuclear staining score (PBLs; conc. 1 (μM)): 0; Hoechst 33342 nuclear staining score (PBLs; conc. 3 (μM)): 0; Hoechst 33342 nuclear staining score (PBLs; conc. 10 (μM)): 0; pIC50 (Jurkat [4]): > 7.00
2 | CS(=O)(=O)O.Nc1ccc(C(=O)Cn2c(-n3ncnc3N)nc3ccccc32)cn1 [Example 15] | 2 (score 2 relating to strong activity comprising more than 50% of the cells) | 2 (score 2 relating to strong activity comprising more than 50% of the cells) | 2 (score 2 relating to strong activity comprising more than 50% of the cells) | 2 (score 2 relating to strong activity comprising more than 50% of the cells) | 2 (score 2 relating to strong activity comprising more than 50% of the cells) | 2 (score 2 relating to strong activity comprising more than 50% of the cells) | 2 (score 2 relating to strong activity comprising more than 50% of the cells) | 2 (score 2 relating to strong activity comprising more than 50% of the cells) | 1 (1 relating to weak activity comprising less than 50% of the cells) | 1 (1 relating to weak activity comprising less than 50% of the cells) | 1 (1 relating to weak activity comprising less than 50% of the cells) | 1 (1 relating to weak activity comprising less than 50% of the cells) | 2 (score 2 relating to strong activity comprising more than 50% of the cells) | 2 (score 2 relating to strong activity comprising more than 50% of the cells) | 2 (score 2 relating to strong activity comprising more than 50% of the cells) | 2 (score 2 relating to strong activity comprising more than 50% of the cells) | 2 (score 2 relating to strong activity comprising more than 50% of the cells) | 2 (score 2 relating to strong activity comprising more than 50% of the cells) | 2 (score 2 relating to strong activity comprising more than 50% of the cells) | 2 (score 2 relating to strong activity comprising more than 50% of the cells) | Hoechst 33342 nuclear staining score (PBLs; conc. 0.3 (μM)): 0; Hoechst 33342 nuclear staining score (PBLs; conc. 1 (μM)): 0; Hoechst 33342 nuclear staining score (PBLs; conc. 3 (μM)): 0; Hoechst 33342 nuclear staining score (PBLs; conc. 10 (μM)): 0
3 | COc1cccc(/C=C/C(=O)Cn2c(-n3ncnc3N)nc3ccccc32)c1 [Example 9] | 0 | 0 | 0 | 2 (score 2 relating to strong activity comprising more than 50% of the cells) | 0 | 0 | 0 | 2 (score 2 relating to strong activity comprising more than 50% of the cells) | 0 | 0 | 0 | 0 | 0 | 0 | 0 | 2 (score 2 relating to strong activity comprising more than 50% of the cells) | 0 | 0 | 0 | 2 (score 2 relating to strong activity comprising more than 50% of the cells) | pIC50 (HeLa [1]): < 6.00; Hoechst 33342 nuclear staining score (PBLs; conc. 0.3 (μM)): 0; Hoechst 33342 nuclear staining score (PBLs; conc. 1 (μM)): 0; Hoechst 33342 nuclear staining score (PBLs; conc. 3 (μM)): 0; Hoechst 33342 nuclear staining score (PBLs; conc. 10 (μM)): 2 (score 2 relating to strong activity comprising more than 50% of the cells); pIC50 (Jurkat [4]): < 6.00
4 | COc1ccc(C(=O)Cn2c(-n3ccc(N)n3)nc3ccccc32)cc1 [Example 2, 5-Amino-2-(1-[4-methoxyphenylcarbonylmethyl]benzimidazol-2-yl)-pyrazole] | 0 | 0 | 2 (score 2 relating to strong activity comprising more than 50% of the cells) | 2 (score 2 relating to strong activity comprising more than 50% of the cells) | 0 | 0 | 2 (score 2 relating to strong activity comprising more than 50% of the cells) | 2 (score 2 relating to strong activity comprising more than 50% of the cells) | 0 | 0 | 0 | 0 | 0 | 2 (score 2 relating to strong activity comprising more than 50% of the cells) | 2 (score 2 relating to strong activity comprising more than 50% of the cells) | 2 (score 2 relating to strong activity comprising more than 50% of the cells) | 0 | 0 | 2 (score 2 relating to strong activity comprising more than 50% of the cells) | 2 (score 2 relating to strong activity comprising more than 50% of the cells) | Hoechst 33342 nuclear staining score (PBLs; conc. 0.3 (μM)): 0; Hoechst 33342 nuclear staining score (PBLs; conc. 1 (μM)): 0; Hoechst 33342 nuclear staining score (PBLs; conc. 3 (μM)): 0; Hoechst 33342 nuclear staining score (PBLs; conc. 10 (μM)): 2 (score 2 relating to strong activity comprising more than 50% of the cells)
